The record followed here is patent US20250248979A1, “NOVEL GPX4 INHIBITORS AND USES THEREOF” (THE TRUSTEES OF COLUMBIA UNIVERSITY IN THE CITY OF NEW YORK, priority 2022, published 2025).

Series [1] in a line: in vitro. The note with it: mouse, plasma.
The target of another series is T1, GPX4^U46C (Homo sapiens, UniProt P36969, U73C).
T1 construct: made in house; host or cells: E. coli BL21-Gold (DE3)
T1 sequence (P36969 1-170 isoform P36969-2 U46C): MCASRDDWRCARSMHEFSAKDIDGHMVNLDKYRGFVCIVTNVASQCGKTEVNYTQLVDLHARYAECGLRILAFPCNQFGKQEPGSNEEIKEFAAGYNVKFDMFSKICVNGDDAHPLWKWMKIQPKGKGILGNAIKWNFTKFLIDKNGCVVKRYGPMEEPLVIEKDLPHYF
The experiment in a line: Protein crystallography of inhibitor complexes. The method, then:
GPX4^U46C was pre-incubated with covalent inhibitors before crystallization using conditions that were optimized with monitoring on intact protein MALDI MS analysis. 40 μM GPX4^U46C was incubated with 375 μM LOC1886 in the reaction buffer (20 mM Tris pH 9.0, 100 mM NaCl, 2 mM TCEP, 1.5% DMSO) at 37° C. for 4 hours and then 4° C. overnight. Covalent binding was confirmed using intact protein MALDI MS analysis. The protein-inhibitor complex was then exchanged into crystallization buffer (20 mM Tris, pH 8.0, 300 mM NaCl, 3 mM TCEP) and concentrated to 5 mg/mL.
Protein samples of GPX4^U46C in complex with LOC1886 were initially screened at the High-Throughput Crystallization Screening Center of the Hauptman-Woodward Medical Research Institute (HWI) (hwi.buffalo.edu/high-throughput-crystallization-center/) (Luft et al. 2003). The most promising crystal hits were reproduced using under oil micro batch method at 23° C. […]
GPX4^U46C with LOC1886 diffracted X-ray at the beamline NE-CAT24-ID-C to resolution 1.93 Å. […] The structure of each protein was determined by molecular replacement method using MOLREP program and the crystal structures of GPX4^U46C (PDB id: 7L8K) and GPX4^U46C-R152H (PDB id: 7L8L) were both used as search models for structure determination (Vagin and Teplyakov, 2010). […]

Series [2] is described as follows: in vitro. The note with it: human, plasma.
Series [3] is described as follows: Kinetic aqueous solubility.
The target in a further series is T2, GPX1 (Homo sapiens, UniProt P07203).
T2 sequence (P07203 1-203): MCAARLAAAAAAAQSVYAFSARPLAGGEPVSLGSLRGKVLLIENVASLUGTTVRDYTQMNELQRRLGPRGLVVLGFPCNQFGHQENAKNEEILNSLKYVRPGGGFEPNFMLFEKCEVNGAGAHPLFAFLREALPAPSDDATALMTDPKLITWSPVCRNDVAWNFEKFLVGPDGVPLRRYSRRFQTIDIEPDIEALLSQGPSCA
The experiment in a line: GPX1 activity assay in cell lysates. The format is biochemical. Further details: endogenous in cells; host or cells: A-673 cell lysate. The method, then:
Determination of GPX1 activity in cell lysates was performed as previously described by Stolwijk et al. with some modifications (Stolwijk et al. 2020). GPX1 and GPX4 activity were not evaluated simultaneously in the same assay as in the published protocol to maximize signal-to-noise with the GPX1 substrate. Again, NADPH consumption, as determined by the reduction in the absorbance at 340 nm, over time was monitored as a proxy for GPX1 activity, which, like GPX4, reduces its substrates using glutathione as a reductant. 100 μM hydrogen peroxide was selected as the GPX1 substrate in this assay. A-673 cell lysates and assay setup were performed as above for the GPX4 activity assay. All conditions were tested in triplicate. Buffer-only controls and controls without substrate containing only Milli-Q water vehicle were performed to assess background and baseline signal. GPX1 activity was calculated as reported by Stolwijk et al. 2020 and results were analyzed in GraphPad Prism 9.

Assay in series [4]: not given
The source holds these as a separate data set.

In a further series the test system is SU-DHL-5. The experiment in a line: Cytotoxicity in DLBCL cells, SU-DHL-5. It is filed as cell-based, human. The note with it: for IC50: SU-DHL-5.
Another series deals with U-2932. The experiment in a line: Cytotoxicity in DLBCL cells, U-2932. The conditions noted are these: for IC50: U-2932. It is filed as cell-based, human.
The test system of the next series is SU-DHL-7. The experiment in a line: Cytotoxicity in DLBCL cells, SU-DHL-7. It is filed as cell-based, human. The note with it: for IC50: SU-DHL-7.
The subject of the next series is SU-DHL-2. The experiment in a line: Cytotoxicity in DLBCL cells, SU-DHL-2. The conditions noted are these: for IC50: SU-DHL-2. The format is cell-based, human.
Where [5] appears, read: Fer-1 1.0 μM, read-out: IC50 (μM) with Fer-1.

In brackets after ≈: the same amount, converted by molar mass. Read-outs that look alike come from different tables or passages of the source.

The term half-life denotes how long it takes for the measured level to halve. Lower therefore signals fast loss. Take `COc1cccc2[nH]c(C(=O)n3ccnc3)cc12` [LOC1886, reference compound]: the half-life in “in vitro [1]” was less than 2 min; in the series “in vitro [2]”, 10.8 min. Moreover, the “binding site in co-crystal structure” value at GPX4^U46C is “bound to allosteric sites C66 and C10 of GPX4^U46C”.

The term Solubility denotes the concentration that dissolves in the medium under given conditions. `COc1ccc2cc(C(=O)NC(C)(C)COC(=O)CCl)[nH]c2c1` [QW-152]: the “Solubility” value in series [3] (aqueous solubility, Table 9) was 88 µM (≈ 29.8 µg/mL).

Take `CC(C)(COC(=O)CCl)NC(=O)c1cc2ccc(Br)cc2[nH]1` [QW-156]: the GPX1 inhibition entry at GPX1 (200 μM) is given as “approximately 30%”. Further, the “Solubility” value in series [3] (aqueous solubility, Table 9) was determined as 23 µM (≈ 8.92 µg/mL).

By solubility is commonly meant the dissolved amount per volume that the medium holds. Higher therefore signals much dissolved substance. With `Cn1nc(C(=O)NC(C)(C)COC(=O)CCl)c2ccc(Br)cc21` [QW-314], at GPX1, the “GPX1 activity assay effect” value was “no inhibitory effect” and the “selectivity for GPX4 over GPX1, result in words” value is “high selectivity for GPX4 over GPX1”. The molecule further came in with a half-life in “in vitro [1]” of 40.7 min. In addition, the “binding site in co-crystal structure” value at GPX4^U46C was “covalently binds to the mutant cysteine in the U46 residue”. In “in vitro [2]”, this molecule showed a half-life of 2.3 min. Also, in series [3] (phosphate buffered saline, pH 7.4, aqueous buffer, kinetic from dmso stock), the solubility at 1 h was 61 µM (≈ 24.6 µg/mL).

`COc1ccc(-c2ccc3c(C(=O)NC(C)(C)COC(=O)CCl)nn(C)c3c2)cc1Cl` [QW-446]: the “Plasma Stability t1/2 (min) human” value is 7.5 min. In series [3], the aqueous solubility entry is listed as “up to 1000 μM”. For the same molecule, in [3] (1% DMSO, Phosphate Buffered Saline pH 7.4, 1 hour, ambient, UV/Vis absorbance), the “Solubility” value stood at 22 µM (≈ 10.2 µg/mL). Moreover, the “Solubility” value in series [3] (aqueous solubility, Table 9) is greater than 1000 µM. In addition, the “Plasma Stability t1/2 (min) mouse” value in series [4] was found to be 24.0 min.

Usually IC50 stands for the concentration that inhibits the measured activity by half. For the molecule `CC(C)(COC(=O)CCl)NC(=O)c1nn(Cc2cc(Cl)cc(Cl)c2)c2cc(-c3ccc(N4CCOCC4)c(Cl)c3)ccc12` [QW-852], the “Selectivity^a (fold)” value in the series with SU-DHL-5 was greater than 1000 fold; in the series with U-2932, 6 fold; in the series with SU-DHL-7, greater than 1000 fold; in the series on SU-DHL-2, greater than 1000 fold. The IC50 in the series on SU-DHL-5 (setting [5]) is 1.58 µM; with U-2932 (24 h, read-out: IC50), 1.37 µM; with U-2932 (setting [5]), 7.9 µM; in the series with SU-DHL-7 (24 h, read-out: IC50), 0.031 µM; in the series on SU-DHL-7 (setting [5]), greater than 1000 µM; in the series on SU-DHL-2 (24 h, read-out: IC50), 0.002 µM. In addition, the IC50 in the series on SU-DHL-2 (setting [5]) is 4.95 µM.

In the case of `COC(=O)c1ccc([C@@H]2c3[nH]c4ccccc4c3C[C@@H](C(=O)OC)N2C(=O)CCl)cc1` [RSL3, reference compound], the “Plasma Stability t1/2 (min) human” value is greater than 1000 min. Further, the “Selectivity^a (fold)” value in the series with SU-DHL-5 came out at 5 fold. Moreover, the IC50 in the series on SU-DHL-5 (24 h, read-out: IC50) was 0.4 µM. The IC50 in the series on SU-DHL-5 (setting [5]) was determined as 2.15 µM. The “Selectivity^a (fold)” value in the series with U-2932 is greater than 1000 fold. Further, the IC50 in the series on U-2932 (24 h, read-out: IC50) came to 0.16 µM. Further, in the series with U-2932 (setting [5]), the IC50 was determined as 316 µM. Moreover, in the series with SU-DHL-7, the “Selectivity^a (fold)” value came to 6 fold. Moreover, in the series on SU-DHL-7 (24 h, read-out: IC50), the IC50 was 0.17 µM. Besides, the IC50 in the series with SU-DHL-7 (setting [5]) is 1 µM. Also, the “Selectivity^a (fold)” value with SU-DHL-2 is listed as 8 fold. The IC50 with SU-DHL-2 (24 h, read-out: IC50) is 0.18 µM. Also, in the series with SU-DHL-2 (setting [5]), the IC50 came to 1.5 µM. Moreover, the “Solubility” value in series [3] (aqueous solubility, Table 9) stood at 26 µM (≈ 11.5 µg/mL). For the same molecule, the “Plasma Stability t1/2 (min) mouse” value in series [4] is recorded as 5.2 min.
